System: Exon 22 truncated CFTR mRNA
Test: ddPCR of Exon 22 truncated CFTR mRNA in 16HBEge-W1282X cells
Type: cell-based, human
Conditions: for Exon 22 truncated CFTR mRNA: 16HBEge-W1282X (FIG. 13A); for expression of Exon 22 truncated CFTR mRNA enhanced by: ASO alone vs no ASO treatment (FIG. 13A); for fold change increase in E22 trunc mRNA levels relative to (−) ASO (100 μM): in combination SA-08 10 μM
Procedure: Free uptake ASO treatments in 16HBEs. Steric blocking ASOs were purchased from IDT with Phosphorothioate (PS) backbone and 2-O-Methoxyethyl (2′-MOE) modifications at each nucleotide. Lyophilized steric blocking ASOs were resuspended in PBS+Mg+Ca to 1 mM and stored in frozen aliquots to minimize the effects of freeze thaw cycles. 16HBEge and 16HBE14o- lines were seeded at 0.150×10^6 cells/well in 24 well plates and grown at 37° C./5% CO2 in MEM supplemented with 10% FBS and 1% Penicil-lin/Streptomycin. After 24 hours, media was refreshed with addition of ASOs and RNA was harvested after 48 hours of treatment.
ddPCR Isoform Quantification. RNA was isolated from treated cells with the Aurum Total RNA Mini Kit. One Step reverse transcriptase and quantitative PCR was performed with the iTaq Universal Probes One Step Kit. All qPCR was run on the CFX Touch Deep Well real-time PCR detection system and analyzed with Bio-Rad CFX Maestro 1.0 software (version 4.0.2325.0418). ddPCR assays were composed of: cDNA or digested genomic DNA, 2×ddPCR Supermix for Probes (no dUTP) (1× final) (Bio-Rad), 40× as-say (1× final), and nuclease free water in 20 μl total reaction volume. cDNA synthesis was performed with the iScript Advanced cDNA Synthesis Kit for RT-qPCR (Bio-Rad). Droplets were generated with QX200 Droplet Digital PCR System (Bio-Rad), cycled in the CFX Touch Deep Well real-time PCR detec-tion system (Bio-Rad), and analyzed with the QX200 Droplet Digital PCR system Droplet Reader. (Bio-Rad). Data was analyzed with the Quantasoft software version 1.7.4. ddPCR probes designed to the junction of exon 25/26 were used as a proxy of full-length WT or W1282X CFTR mRNA and probes de-signed to exon 22/intron 22 junction including the first 140 bp of intron 22 were used as a proxy of ex-on 22 truncated CFTR mRNA.
16HBEge-W1282X cells were treated with exemplary ASOs according to some embodiments of the present disclosure. In some cases, the exemplary ASOs were administered at various doses alone, in combination with other ASOs at various doses, or co-administered with Trikafta, and a plurality of assays were used to assess the effects of the ASO treatments in 16HBEge-W1282X cells.
Exon 22 truncated CFTR mRNA was assayed using ddPCR, as depicted in FIGS. 13A-13B. 16HBEge-W1282X cells were treated with SA08 alone, SD10 alone, or SA08 in combination with SD10 at various doses, in the presence of DMSO vehicle control or Trikafta. As depicted in FIG. 13A, Exon 22 truncated CFTR mRNA was increased in all groups treated with exemplary ASO(s) compared to no ASO treatment. Separate treatment of SA08 alone and SD10 alone enhanced the expression of Exon 22 truncated CFTR mRNA by about 100% and by over 200%, from less than 20000 copies per 40 ng RNA to about 30000 copies and about 65000 copies per 40 ng RNA, respectively. The combination of SA08 and SD10 further enhanced the expression of Exon 22 truncated CFTR mRNA to about 80000 copies per 40 ng RNA. […] Full length CFTR W1282X mRNA levels were unchanged in SD-10 & SA-08 or combination treatment compared to untreated or (−) ASO (100 μM) control. (−) ASO (100 μM) E22 trunc mRNA levels were also unchanged compared to untreated cells. […] SD-10 & SA-08 or combination treatments induced a 4.5×, 5.1×, 6.6×, and 7.3× fold change increase in E22 trunc mRNA levels relative to (−) ASO (100 μM) with SD-10 (10 μM), SD-10 (100 μM), SD-10 (10 μM) & SA-08 (10 μM), and SD-10 (100 μM) & SA-08 (10 μM) respectively.

Row | Substance | amount of Exon 22 truncated CFTR mRNA compared to no ASO treatment (16HBEge-W1282X) | Exon 22 truncated CFTR mRNA | expression of Exon 22 truncated CFTR mRNA enhanced by (16HBEge-W1282X) | amount of Exon 22 truncated CFTR mRNA compared to no ASO treatment (16HBEge-W1282X, listed as SD-10) | fold change increase in E22 trunc mRNA levels relative to (−) ASO (100 μM) (SD-10 10 μM, 16HBEge-W1282X) [×] | fold change increase in E22 trunc mRNA levels relative to (−) ASO (100 μM) (SD-10 100 μM, 16HBEge-W1282X) [×] | amount of Exon 22 truncated CFTR mRNA compared to no ASO treatment (16HBEge-W1282X, listed as SA08) | amount of Exon 22 truncated CFTR mRNA compared to no ASO treatment (16HBEge-W1282X, listed as SA-08) | expression of Exon 22 truncated CFTR mRNA, effect of Trikafta treatment (16HBEge-W1282X, all groups)
1 | aaagcaagcagtgttcaaatct (antisense AAAGCAAGCAGTGTTCAAATCT; all 2'-MOE, all phosphorothioate, methylation of C not given here) [SD10, PS backbone, 2′-MOE] | increased | about 65000 copies per 40 ng RNA | over 200% | significantly increase | 4.5 | 5.1 |  |  | 
2 | ataaggtaaaagtgatgggatc (antisense ATAAGGTAAAAGTGATGGGATC; all 2'-MOE, all phosphorothioate, methylation of C not given here) [SA8, PS backbone, 2′-MOE] |  | about 30000 copies per 40 ng RNA | about 100% |  |  |  | increased | significantly increase | 
3 | elexacaftor/ivacaftor/tezacaftor [Trikafta] |  |  |  |  |  |  |  |  | did not significantly alter
